{
  "source": "paper PMC6934184",
  "about": "“Selective DNA-PKcs inhibition extends the therapeutic index of localized radiotherapy and chemotherapy” (The Journal of Clinical Investigation, 2019)",
  "biological_target": "T1, BRAF V599E (Homo sapiens, UniProt P15056, V600E)",
  "T1 construct": "purchased Thermo Fisher Scientific (Life Technologies) SelectScreen",
  "T1 sequence (P15056 417-766 V600E limits assumed)": "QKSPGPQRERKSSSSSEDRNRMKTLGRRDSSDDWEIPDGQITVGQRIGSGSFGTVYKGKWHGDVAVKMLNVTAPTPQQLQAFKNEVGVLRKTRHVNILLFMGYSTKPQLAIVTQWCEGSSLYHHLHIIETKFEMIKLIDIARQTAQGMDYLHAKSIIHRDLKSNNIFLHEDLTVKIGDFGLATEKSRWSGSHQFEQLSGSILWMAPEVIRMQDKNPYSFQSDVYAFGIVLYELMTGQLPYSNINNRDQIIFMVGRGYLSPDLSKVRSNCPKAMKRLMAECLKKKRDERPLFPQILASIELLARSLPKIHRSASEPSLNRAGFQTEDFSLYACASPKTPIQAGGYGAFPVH",
  "assay": "SelectScreen Z'LYTE",
  "type": "biochemical",
  "settings": "ATP 100 µM",
  "summary_of_the_method": "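Compound tested in SelectScreen activity assays, Z'LYTE for CSF1R, CDK1/cyclin B and MAP2K6 and Adapta for CAMK1. ATP for CAMK1 was listed as 10, and Km app was used for CSF1R. Results are expressed in percent.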",
  "data": [
    {"smiles": "CN(C(=O)CN1CCOCC1)c1ccc2sc3c(-c4cccc5c(=O)cc(N6CC7CCC(C6)O7)oc45)cccc3c2c1", "note": "[NU5455]", "values": [
      {"measurement": "inhibition at 1 µM", "result": 18.3, "unit": "%"}
    ]}
  ]
}
